Data set [1] concerns the target T1, EGFP-human Top1 in MCF7 cells (Homo sapiens, UniProt P11387).
T1 construct: expressed in transfected cells; host or cells: MCF7 cells, transient transfection (Lipofectamine 2000)
T1 sequence (P11387 1-765): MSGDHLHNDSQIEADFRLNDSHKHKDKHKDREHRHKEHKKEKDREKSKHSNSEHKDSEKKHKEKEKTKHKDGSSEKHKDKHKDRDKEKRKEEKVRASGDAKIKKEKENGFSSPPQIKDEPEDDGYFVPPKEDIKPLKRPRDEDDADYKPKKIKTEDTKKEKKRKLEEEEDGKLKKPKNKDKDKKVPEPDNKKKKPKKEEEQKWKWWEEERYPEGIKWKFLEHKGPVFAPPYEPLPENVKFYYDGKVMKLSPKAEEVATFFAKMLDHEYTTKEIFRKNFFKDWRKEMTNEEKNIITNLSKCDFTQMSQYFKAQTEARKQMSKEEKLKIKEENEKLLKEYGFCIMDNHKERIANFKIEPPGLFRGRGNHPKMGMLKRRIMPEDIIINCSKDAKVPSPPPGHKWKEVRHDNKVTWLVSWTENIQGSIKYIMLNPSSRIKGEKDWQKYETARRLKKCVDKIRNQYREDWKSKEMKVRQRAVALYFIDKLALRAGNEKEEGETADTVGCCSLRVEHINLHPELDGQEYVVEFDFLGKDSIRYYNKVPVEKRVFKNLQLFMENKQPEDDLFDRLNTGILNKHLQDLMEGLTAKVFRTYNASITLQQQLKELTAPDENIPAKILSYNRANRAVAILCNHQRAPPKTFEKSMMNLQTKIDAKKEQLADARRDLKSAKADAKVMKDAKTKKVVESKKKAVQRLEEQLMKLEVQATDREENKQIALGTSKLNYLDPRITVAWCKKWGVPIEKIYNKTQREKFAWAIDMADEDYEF
The data set can be described thus: FRAP of EGFP-Top1 in live MCF7 cells. Format: cell-based. To be noted: CPT 5 μM 10 min, then compound 20 μM 10 min. On the procedure: To obtain direct evidence for compound 8 mediated inhibition of Top1cc formation in live human carcinoma cells, we used MCF7 cells and transiently expressed EGFP-Top1. Live cells expressing ectopic Top1 were analyzed under laser confocal microscopy equipped with fluorescence recovery after photobleaching (FRAP) technology.[40]−[42]
Photobleaching experiments were performed as described formerly[40]−[42] using Andor Spining disk inverted confocal laser-scanning microscope equipped with a 60×/1.42 NA oil-immersion objective (Olympus) and with a CO2-controlled on-stage heated environmental chamber set to 37 °C. FRAP analyses were carried out with living MCF7 cells ectopically expressing EGFP-human Top1 grown on chamber cover glass (Genetix, India) and drug treated as indicated. For FRAP analysis, a subnuclear spot was bleached for 30 ms by solid-state laser line (488 nm for EGFP) adapted to the fluorescent protein of interest and FRAP curves were generated individually normalized to the prebleach signal as described previously.[42]

Data set [2] concerns PARP1 cleavage in MCF7 cells. The data set can be described thus: Western blot of PARP1 cleavage in treated MCF7 cells. The settings on record: 10 μM, 12 h. In kind it is cell-based, human. Here is the method:
Preparation of whole cell extracts from MCF7 cells and immunoblotting were carried out as described.[6],[40],[41] Immunoreactivity was detected using ECL chemiluminescence reaction (Amersham) under ChemiDoc MP system (Bio-Rad, USA).
A general note: In western blotting, separated proteins are transferred to a membrane and probed.

Data set [3] has as its target T2, recombinant Top1 (Homo sapiens, UniProt P11387).
T2 construct: made in house; host or cells: Sf-9 insect cells (recombinant baculovirus, gift of Prof. James J. Champoux)
T2 sequence (P11387 1-765): T1 sequence (P11387 1-765)
Briefly: Dilution assay with recombinant Top1 (reversibility of inhibition). Format: biochemical. An excerpt:
To further investigate the nature of binding of compound 8 with Top1 (reversible vs irreversible),[12],[14] we performed dilution assay with recombinant Top1.

The target in data set [4] is T2, recombinant Top1. Briefly: Plasmid DNA relaxation assay with recombinant human Top1. In kind it is biochemical. To be noted: 1 μM compound, preincubated with Top1 before addition of DNA. The text has this: To test the inhibitory effect of the synthetic library of neutral porphyrin compounds (Scheme 1) on human Top1 activity, we performed the DNA relaxation assays in a standard assay mixture containing the plasmid DNA and recombinant Top1.[6],[13],[36],[37]Table 1 enlists the compounds with relative efficiencies of Top1 inhibition as a measure of their effective drug concentrations (EC50 value), indicating the highest activity for the selected neutral porphyrin derivative compound 8.
To examine the mechanism of Top1 inhibition with compound 8, we used variable incubation conditions in the relaxation assays (Figure 1A). […] Next, to test the impact of compound 8 interaction with Top1 in the relaxation assays, we preincubated Top1 with compound 8 at indicated concentrations (Figure 1A, lanes 5–8) separately before the addition of DNA.[6],[13],[36],[38]
The recombinant human Top1 was purified from Sf-9 insect cells, infected with the recombinant baculovirus (a kind gift from Prof. James. J. Champoux) as described previously.[6],[13]
The type 1 DNA topoisomerase is assayed by decreased mobility of the relaxed isomers of supercoiled pBS (SK^+) DNA in 1% agarose gel. […]

In data set [5] the test system is human breast adenocarcinoma cell lines (MCF7). Briefly: Cell survival (MTT) assay, MCF7. Format: cell-based. The settings on record: MCF7, CPT 5 μM 12 h prior to addition of compound 8. Here is the method:
Compound 8 was investigated for its cytotoxicity in the cancer cell lines from different tissue origin,[6],[41] as well as in the noncancerous human embryonic kidney cell lines (HEK293) and mouse embryonic fibroblasts (MEFs). […] The MCF7 breast cancer cell lines were most susceptible to compound 8.
Cell survival was assessed by 3-(4,5-dimethylthiazol-2-yl)-2,5-diphenyltetrazolium bromide (MTT) assay as discussed previously.[6] The percent inhibition of viability for each concentration of the compounds was calculated with respect to the control, and IC50 values were estimated.

As to `CN(C)c1ccc(-c2c3nc(c(-c4ccc(N(C)C)cc4)c4ccc([nH]4)c(-c4ccc(C(=O)O)cc4)c4nc(c(-c5ccc(C(=O)O)cc5)c5ccc2[nH]5)C=C4)C=C3)cc1` [Compound 8, 5,10-Bis(4-carboxyphenyl)-15,20-bis(4-dimethylaminophenyl)porphyrin], the “Top1 mobility restored in cells pretreated with CPT (FRAP)” value in data set [1] is 12–15%. Also, the PARP cleavage result in data set [2] was “promotes PARP cleavage”. The inhibition (usually the drop in the measured response relative to a control, in per cent) at 1 µM on recombinant Top1 [3] (Top1 preincubated with 1 μM compound, read-out: Inhibition of enzyme before dilution) was 90 to 99%; on recombinant Top1 [4], 85 to 95%. Moreover, the “Relief of Top1 inhibition upon dilution” value on recombinant Top1 [3] (at 40-fold dilution (final 0.025 μM)) is on record as “Complete relief of Top1 inhibition”. Besides, the “Cytotoxicity of CPT pretreatment followed by compound 8” value in data set [5] is recorded as “not additive in cytotoxicity”.
